Test results reported in patent publication US20200071316A1, “ACTIVATORS OF THE RETINOIC ACID INDUCIBLE GENE "RIG-I" PATHWAY AND METHODS OF USE THEREOF” (Kineta Immuno-Oncology LLC, priority 2018, published 2020).
Marks after values point to notes of the source that are not given here.

Assays:
[1] = system: IRF3 signaling pathway (IRF-inducible ISG54 promotor) in THP1-Lucia ISG cells; assay: THP1-Lucia ISG reporter assay: induction of IRF3-dependent luciferase activity; type: cell-based; details: Homo sapiens, PMA-differentiated cells, 18 h after stimulation, read-out: THP1 ISG: fold increase of IRF3-dependent luciferase activity over background; for fold induction at 10 µM: 10 μM compound; for fold induction at 5 µM: 5 μM compound (**)
Method: The compounds were evaluated in the THP1-Lucia™ ISG (interferon stimulated genes) reporter assay to determine if the compounds activate the IRF3 signaling pathway. The THP1-Lucia™ cells (InvivoGen) express the secreted luciferase (Lucia) reporter gene under the control of an IRF-inducible promotor. The reporter cell line was developed from human monocytic leukemia THP-1 cells.
(§1) The promotor was comprised of five IFN-stimulated response elements (ISRE) fused to an ISG54 minimal promotor which is unresponsive to NF-kB or AP-1 pathways. […] The IRF3-deficient THP1-Lucia™ ISG IRF3 −/− reporter cell line was generated by CRISPR technology from the parent THP1-Lucia™ ISG reporter cell line.
(§2) 5 THP1-Lucia™ ISG cells and IRF3-deficient THP1-Lucia™ ISG IRF3 −/− cells were differentiated with PMA (100 ng/ml) and stimulated with compounds at the indicated concentrations (5 to 20 μM), positive control, or not treated (background). Luciferase secretion was quantified using the QUANTI-Luc luciferase assay system (InvivoGen) 18 h after stimulation. Data are shown as fold increase luciferase activity over background in Table 7 and represent the IRF3-dependent ISG54 promotor activity by the THP1-Lucia™ ISG cells in response to compounds. […] The fold increase of compounds (10 μM, *20 μM, **5 μM) induced IRF3 dependent luciferase activity is indicated as follows: “−” indicates less than 2.4 fold increase; “+” indicates a 2.4-4.9 fold increase; “++” indicates a 5-9.9 fold increase; “+++” indicates a 10-19 fold increase; “++++” indicates a 20-39 fold increase; “+++++” indicates greater than or equal to 40 fold increase.

[2] = system: RIG-I deficient CT26 RIG-1−/− cells; assay: CXCL10 secretion in RIG-I deficient CT26 RIG-1−/− cells (ELISA); type: cell-based, murine; details: 24 h
Method: (§3) The CT26 murine colon carcinoma cell line (ATCC) was used to evaluate the induction of CXCL10 secretion. CXCL10 is an important chemokine in tumor immune biology that recruits tumor-specific T cells to the tumor. To confirm that compound-mediated CXCL10 production was RIG-I specific, RIG-I deficient CT2-RIG-1−/− cells were generated by Kineta using CRISPR technology.
(§4) CT26 cells were seeded at a density of 1×10^4 cells per well on a 96-well tissue culture plate in 100 μL of cell culture and cells were incubated at 37° C. and 5% CO2 for 24 hr. Next, CT26 cells were treated with compounds at the indicated concentrations. CXCL10 was quantified by ELISA from supernatants taken 24 h after compound stimulation by use of the CXCL10 DuoSet ELISA kit (Cat # DY466, R&D, Minneapolis, Minn., USA) according to the manufacturer's instructions.
(§5) CXCL10 secretion by CT26 cells in response to compounds (in an amount of 5 to 20 μM) of the present disclosure is shown in Table 8. The compound-induced CXCL10 production was RIG-I dependent, since none of the compounds mediated CXCL10 secretion in RIG-I deficient CT26 RIG-1−/− cells. The compounds (10 μM, *20 μM, **5 μM) are indicated in the table as follows: “−” indicates less than 100 pg/mL; “+” indicates 100-199 pg/mL; “++” indicates 200-399 pg/mL; “+++” indicates 400-799 pg/mL; “++++” indicates 800 to 1599 pg/mL; “+++++” indicates greater than or equal to 1600 pg/ml.

[3] = system: THP1-Lucia ISG IRF3 −/− cells; assay: IRF3-deficient THP1-Lucia ISG IRF3 −/− reporter assay (counter-screen); type: cell-based; details: Homo sapiens, 18 h after stimulation, read-out: THP1 ISG IRF3 −/−: fold increase of luciferase activity over background; for fold induction at 10 µM: 10 μM compound; for fold induction at 5 µM: 5 μM compound (**)
Method: as §1, §2

[4] = system: CXCL10 secretion by CT26 cells; assay: RIG-I dependent CXCL10 secretion by CT26 colon carcinoma cells (ELISA); type: cell-based, murine; details: 24 h
Method: as §3, §4, §5

In the case of `O=C(Nc1nc2ccc(S(=O)(=O)N3CCCC3)cc2s1)c1cc2ccccc2cc1OCCCCN1CCC(F)(F)CC1` [Example 80, 3-[4-(4,4-difluoropiperidin-1-yl)butoxy]-N-[6-(pyrrolidine-1-sulfonyl)-1,3-benzothiazol-2-yl]naphthalene-2-carboxamide], the fold induction at 10 µM [1] is reported as 20 to 39, the “CXCL10 secretion by CT26 RIG-I −/− cells” value ([2]; 10 μM compound) is reported as “− (“−” indicates less than 100 pg/mL)” and the fold induction at 10 µM [3] is reported as < 2.4. The “CXCL10 secretion by CT26 cells” value ([4]; 10 μM compound) was “++++ (“++++” indicates 800 to 1599 pg/mL)”.
With `O=C(Nc1nc2ccc(S(=O)(=O)N3CCC(O)C3)cc2s1)c1cc2ccccc2cc1OCCN1CCOCC1` (stereo not drawn) [Example 56, N-{6-[(3-hydroxypyrrolidin-1-yl)sulfonyl]-1,3-benzothiazol-2-yl}-3-[2-(morpholin-4-yl)ethoxy]naphthalene-2-carboxamide] the fold induction at 10 µM [1] was 10 to 19, the “CXCL10 secretion by CT26 RIG-I −/− cells” value ([2]; 10 μM compound) was “− (“−” indicates less than 100 pg/mL)” and the fold induction at 10 µM [3] was < 2.4. The “CXCL10 secretion by CT26 cells” value ([4]; 10 μM compound) was “+++ (“+++” indicates 400-799 pg/mL)”.
With `O=C(Nc1nc2ccc(S(=O)(=O)N3CCCC3)cc2s1)c1cc2ccccc2cc1OCCN1CCOCC1` [Example 29, 3-[2-(morpholin-4-yl)ethoxy]-N-[6-(pyrrolidine-1-sulfonyl)-1,3-benzothiazol-2-yl]naphthalene-2-carboxamide] the fold induction at 10 µM [1] was ≥ 40, the “CXCL10 secretion by CT26 RIG-I −/− cells” value ([2]; 10 μM compound) was “− (“−” indicates less than 100 pg/mL)” and the fold induction at 10 µM [3] was < 2.4. For the same molecule, the “CXCL10 secretion by CT26 cells” value ([4]; 10 μM compound) was “++++ (“++++” indicates 800 to 1599 pg/mL)”.
In the case of `NS(=O)(=O)c1ccc2nc(NC(=O)c3cc4ccccc4cc3OCCCCN3CCOCC3)sc2c1` [Example 32, 3-[4-(morpholin-4-yl)butoxy]-N-(6-sulfamoyl-1,3-benzothiazol-2-yl)naphthalene-2-carboxamide], the fold induction at 5 µM [1] is reported as 5 to 9.9, the “CXCL10 secretion by CT26 RIG-I −/− cells” value ([2]; 10 μM compound) is reported as “− (“−” indicates less than 100 pg/mL)” and the fold induction at 5 µM [3] is reported as < 2.4. For the same molecule, the “CXCL10 secretion by CT26 cells” value ([4]; 10 μM compound) was “++++ (“++++” indicates 800 to 1599 pg/mL)”.
In the case of `O=C(Nc1nc2ccc(S(=O)(=O)N3CCCC3)cc2s1)c1cc2ccsc2cc1OCCN1CCOCC1` [Example 39, 6-[2-(morpholin-4-yl)ethoxy]-N-[6-(pyrrolidine-1-sulfonyl)-1,3-benzothiazol-2-yl]-1-benzothiophene-5-carboxamide], the fold induction at 10 µM [1] is reported as 20 to 39, the “CXCL10 secretion by CT26 RIG-I −/− cells” value ([2]; 10 μM compound) is reported as “− (“−” indicates less than 100 pg/mL)” and the fold induction at 10 µM [3] is reported as < 2.4. For the same molecule, the “CXCL10 secretion by CT26 cells” value ([4]; 10 μM compound) was “++ (“++” indicates 200-399 pg/mL)”.
For `O=C(Nc1nc2ccc(NC(=O)C3CCCCC3)cc2s1)c1cc2ccccc2cc1OCCCCN1CCOCC1` [Example 22, N-(6-cyclohexaneamido-1,3-benzothiazol-2-yl)-3-[4-(morpholin-4-yl)butoxy]naphthalene-2-carboxamide], the fold induction at 5 µM [1] was 2.4 to 4.9, the “CXCL10 secretion by CT26 RIG-I −/− cells” value ([2]; 5 μM compound (**)) was “−** (“−” indicates less than 100 pg/mL)” and the fold induction at 5 µM [3] was < 2.4. For the same molecule, the “CXCL10 secretion by CT26 cells” value ([4]; 5 μM compound (**)) was “+** (“+” indicates 100-199 pg/mL)”.
`O=C(Nc1nc2ccc(NC(=O)C3CCCCC3)cc2s1)c1ccc2ccccc2c1` [Example 8, N-(6-cyclohexaneamido-1,3-benzothiazol-2-yl)naphthalene-2-carboxamide] was tested, and the fold induction at 10 µM [1] was 10 to 19, the “CXCL10 secretion by CT26 RIG-I −/− cells” value ([2]; 10 μM compound) was “− (“−” indicates less than 100 pg/mL)” and the fold induction at 10 µM [3] was < 2.4. For the same molecule, the “CXCL10 secretion by CT26 cells” value ([4]; 10 μM compound) was “++++ (“++++” indicates 800 to 1599 pg/mL)”.
With `O=C(Nc1nc2ccc(SC(F)F)cc2s1)c1cc2ccccc2cc1OCCCCN1CCOCC1` [Example 49, N-{6-[(difluoromethyl)sulfanyl]-1,3-benzothiazol-2-yl}-3-[4-(morpholin-4-yl)butoxy]naphthalene-2-carboxamide] the fold induction at 10 µM [1] was 20 to 39, the “CXCL10 secretion by CT26 RIG-I −/− cells” value ([2]; 10 μM compound) was “− (“−” indicates less than 100 pg/mL)” and the fold induction at 10 µM [3] was < 2.4. The “CXCL10 secretion by CT26 cells” value ([4]; 10 μM compound) was “+++ (“+++” indicates 400-799 pg/mL)”.
For `O=C(Nc1nc2ccc(S(=O)(=O)N3CC4(COC4)C3)cc2s1)c1cc2ccccc2cc1OCCCCN1CCOCC1` [Example 55, 3-[4-(morpholin-4-yl)butoxy]-N-(6-{2-oxa-6-azaspiro[3.3]heptane-6-sulfonyl}-1,3-benzothiazol-2-yl)naphthalene-2-carboxamide], the fold induction at 10 µM [1] was 2.4 to 4.9, the “CXCL10 secretion by CT26 RIG-I −/− cells” value ([2]; 10 μM compound) was “− (“−” indicates less than 100 pg/mL)” and the fold induction at 10 µM [3] was < 2.4. The “CXCL10 secretion by CT26 cells” value ([4]; 10 μM compound) was “++ (“++” indicates 200-399 pg/mL)”.
In the case of `O=C(Nc1nc2ccc(S(=O)(=O)N3CCC3)cc2s1)c1ccc(-c2ccccc2)cc1` [Example 50, N-[6-(azetidine-1-sulfonyl)-1,3-benzothiazol-2-yl]-[1,1′-biphenyl]-4-carboxamide], the fold induction at 10 µM [1] is reported as 5 to 9.9, the “CXCL10 secretion by CT26 RIG-I −/− cells” value ([2]; 10 μM compound) is reported as “− (“−” indicates less than 100 pg/mL)” and the fold induction at 10 µM [3] is reported as < 2.4. The “CXCL10 secretion by CT26 cells” value ([4]; 10 μM compound) was “+++++ (“+++++” indicates greater than or equal to 1600 pg/ml)”.
In the case of `O=C(Nc1nc2ccc(S(=O)(=O)N3CCC3)cc2s1)c1cc2ccccc2cc1OCCCCN1CCOCC1` [Example 36, N-[6-(azetidine-1-sulfonyl)-1,3-benzothiazol-2-yl]-3-[4-(morpholin-4-yl)butoxy]naphthalene-2-carboxamide], the fold induction at 10 µM [1] is reported as 10 to 19, the “CXCL10 secretion by CT26 RIG-I −/− cells” value ([2]; 10 μM compound) is reported as “− (“−” indicates less than 100 pg/mL)” and the fold induction at 10 µM [3] is reported as < 2.4. The “CXCL10 secretion by CT26 cells” value ([4]; 10 μM compound) was “+++ (“+++” indicates 400-799 pg/mL)”.
In the case of `O=C(Nc1nc2ccc(S(=O)(=O)N3CCCC3)cc2s1)c1cc2c(cc1OCCCCN1CCOCC1)OCO2` [Example 43, 6-[4-(morpholin-4-yl)butoxy]-N-[6-(pyrrolidine-1-sulfonyl)-1,3-benzothiazol-2-yl]-2H-1,3-benzodioxole-5-carboxamide], the fold induction at 10 µM [1] is reported as 5 to 9.9, the “CXCL10 secretion by CT26 RIG-I −/− cells” value ([2]; 10 μM compound) is reported as “− (“−” indicates less than 100 pg/mL)” and the fold induction at 10 µM [3] is reported as < 2.4. The “CXCL10 secretion by CT26 cells” value ([4]; 10 μM compound) was “++++ (“++++” indicates 800 to 1599 pg/mL)”.
`O=C(Nc1nc2ccc(SC(F)F)cc2s1)c1ccc2ccccc2c1` [Example 4, N-{6-[(difluoromethyl)sulfanyl]-1,3-benzothiazol-2-yl}naphthalene-2-carboxamide] was tested, and the fold induction at 10 µM [1] was ≥ 40, the “CXCL10 secretion by CT26 RIG-I −/− cells” value ([2]; 10 μM compound) was “− (“−” indicates less than 100 pg/mL)” and the fold induction at 10 µM [3] was < 2.4. For the same molecule, the “CXCL10 secretion by CT26 cells” value ([4]; 10 μM compound) was “++++ (“++++” indicates 800 to 1599 pg/mL)”.
For `CS(=O)(=O)Nc1ccc2nc(NC(=O)c3ccc4ccccc4c3)sc2c1` [Example 7, N-(6-methanesulfonamido-1,3-benzothiazol-2-yl)naphthalene-2-carboxamide], the fold induction at 10 µM [1] was 20 to 39, the “CXCL10 secretion by CT26 RIG-I −/− cells” value ([2]; 10 μM compound) was “− (“−” indicates less than 100 pg/mL)” and the fold induction at 10 µM [3] was < 2.4. The “CXCL10 secretion by CT26 cells” value ([4]; 10 μM compound) was “++ (“++” indicates 200-399 pg/mL)”.
In the case of `O=C(Nc1cc2ccc(S(=O)(=O)N3CCCC3)cc2s1)c1cc2ccccc2cc1OCCCCN1CCOCC1` [Example 70, 3-[4-(morpholin-4-yl)butoxy]-N-[6-(pyrrolidine-1-sulfonyl)-1-benzothiophen-2-yl]naphthalene-2-carboxamide], the fold induction at 10 µM [1] is reported as 10 to 19, the “CXCL10 secretion by CT26 RIG-I −/− cells” value ([2]; 10 μM compound) is reported as “− (“−” indicates less than 100 pg/mL)” and the fold induction at 10 µM [3] is reported as < 2.4. For the same molecule, the “CXCL10 secretion by CT26 cells” value ([4]; 10 μM compound) was “+++ (“+++” indicates 400-799 pg/mL)”.
